In this assay the target is Human MAT2A (Homo sapiens (Human), UniProt P31153). Description: Phosphate Sensor Fluorescence Assay (MAT2A enzyme inhibition). The class given is biochemical. Particulars: L-methionine 500 uM, ATP 500 uM. The method, then: The ability of the compound of present disclosure to inhibit MAT2A enzyme was determined using the Malachite Green or Phosphate Sensor Fluorescence Assay described below.
B. Phosphate Sensor Fluorescence Assay
MAT2A enzyme is incubated with a test compound in DMSO or DMSO and its substrates (L-methionine and ATP) in a microtiter plate. The enzymatic reaction is stopped by the addition of Working Phosphate Sensor Mixture. The plate is analyzed for fluorescence at 450 nm.
Assay Buffer: 50 mM Tris, pH 7.5/50 mM KCl/10 mM MgCl2/0.01% Brij-35/1 mM DTT/0.1% BGG/40 nM PNP/6 uM 7-MEG
L-methionine: 500 uM before the addition of Working Phosphate Sensor Mixture
ATP: 500 uM before the addition of Working Phosphate Sensor Mixture
Test compounds or DMSO were added to the appropriate well suing D300e digital dispenser. 5 μl/well of Assay Buffer was added to the wells corresponding to the negative control and 5 μl/well of MAT2A was added to all the wells except for those corresponding to the negative control. After incubating the plate at room temperature for 15 minutes, 5 μl/well of the 1 mM L-methionine/1 mM ATP mixture was added to all wells. The plate was centrifuged at 1000 rpm for 1 minute and then incubated at room temperature for 1 hour. 5 μl of the Working Phosphate Sensor Mixture was added to all wells and the plate was centrifuged at 1000 rpm for 1 minute. The plate was read for fluorescence at 450 nm after exciting at 430 nm.
Percent inhibition was calculated in Chemical and Biological Information System (CBIS), (ChemInnovation Software Inc.). Curves were fitted by CBIS as % inhibition vs. log [compound concentration] using a 4-parameter inhibition model. Fit=(A+((B−A)/(1+((C/x)^D)))) Res=(y−fit)

The term IC50 denotes the concentration needed to halve the response being measured.

Chain of Human MAT2A (P31153 whole entry): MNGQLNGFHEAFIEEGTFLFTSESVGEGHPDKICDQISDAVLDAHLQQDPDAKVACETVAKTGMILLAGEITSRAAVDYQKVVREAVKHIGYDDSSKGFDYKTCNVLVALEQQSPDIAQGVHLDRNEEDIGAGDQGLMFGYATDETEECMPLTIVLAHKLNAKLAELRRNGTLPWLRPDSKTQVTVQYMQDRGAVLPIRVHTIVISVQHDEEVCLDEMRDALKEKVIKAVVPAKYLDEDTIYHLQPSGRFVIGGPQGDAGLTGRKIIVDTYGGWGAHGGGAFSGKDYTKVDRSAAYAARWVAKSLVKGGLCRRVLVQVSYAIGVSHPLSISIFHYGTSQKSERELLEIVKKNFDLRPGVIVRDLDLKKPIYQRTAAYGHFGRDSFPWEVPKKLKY

Take “8-chloro-1-(2-chlorophenyl)-7- (trifluoro-methyl)pyrido[2,3- d]pyrimidine-2,4(1H,3H)-dione-1 [Example 360]”: the IC50 (numeric bound) is > 10000 nM.

For the compound `CCCc1ccc2c(N(C)C)nc(=O)n(-c3ccccc3)c2c1` [compound 98], the IC50 (class symbols) is < 200 nM.

As for `O=c1nc(N2CC[C@@H](O)C2)c2ccc(Cl)cc2n1-c1ccccc1O` [compound 152], under “class symbols”, the IC50 was < 200 nM.
